A short description of data set [1]: In vitro liver microsomal stability assay, human. The following applies: for CLint scaled at 1 µM / half-life at 1 µM / microsomal CLint at 1 µM / T1/2: Human liver microsomes; for Remaining amount % at 60 min: Human liver microsomes 0.5 mg/mL, NADPH; for microsomal CLint at 1 µM: read-out: CLint(mic). It is filed as in vitro ADME. Put shortly: (§1)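 Test compound at […] was incubated at 37° C with 0.5 mg/mL rat or human liver microsomes, 1 mM NADPH and 3 mM MgCl2, in triplicate, sampled 0–60 min. Remaining parent was quantified by LC-MS/MS, giving half-life and microsomal and hepatic intrinsic clearance.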

For data set [2], the target named is T1, α1β2γ2 GABA receptors (α1β2γ2-CHO-TRex stable cell strain) (Homo sapiens, UniProt P14867+P47870).
T1 construct: expressed in transfected cells
Kind of data set: Whole-cell patch clamp, intrasynaptic functional activity (positive allosteric regulation of GABA-induced current). It is filed as cell-based. The following applies: patch clamp -60 mV, GABA at EC10-20, α1β2γ2-CHO-TRex cells. Put shortly: (§2)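 Tetracycline-induced stable lines were used: α4β3δ in HEK-FlpIn-TRex and α1β2γ2 in CHO-TRex. Whole-cell patch clamp was run at −60 mV with GABA at EC10-20 ([…]) and compound perfused for 30 s before GABA, with extracellular pH 7.4. Fold increase in GABA current over ≥5 concentrations on ≥3 cells gave EC50 and Emax by Hill fit.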

The target in data set [3] is T2, α4β3δ GABA receptors (α4β3δ-HEK-FlpIn-TRex stable cell strain) (Homo sapiens, UniProt P28472+P48169).
T2 construct: expressed in transfected cells
Kind of data set: Whole-cell patch clamp, extrasynaptic functional activity (positive allosteric regulation of GABA-induced current). Format: cell-based. Particulars: patch clamp -60 mV, GABA at EC10-20, α4β3δ-HEK-FlpIn-TRex cells. Put shortly: as §2

Data set [4] in a line: In vitro liver microsomal stability assay, rat. Format: in vitro ADME. Particulars: for Remaining amount % at 60 min: Rat liver microsomes 0.5 mg/mL, NADPH; for microsomal CLint at 1 µM: read-out: CLint(mic). Put shortly:
as §1

This is an account of results in patent publication US20250368678A1, “19-NOR-C3,3-DISUBSTITUTED C21-AZACYCLO-S[…] AND METHOD FOR USING SAME” (SHANDONG LUYE PHARMACEUTICAL CO., LTD., priority 2022, published 2025).

T2 sequence (P48169 36-554): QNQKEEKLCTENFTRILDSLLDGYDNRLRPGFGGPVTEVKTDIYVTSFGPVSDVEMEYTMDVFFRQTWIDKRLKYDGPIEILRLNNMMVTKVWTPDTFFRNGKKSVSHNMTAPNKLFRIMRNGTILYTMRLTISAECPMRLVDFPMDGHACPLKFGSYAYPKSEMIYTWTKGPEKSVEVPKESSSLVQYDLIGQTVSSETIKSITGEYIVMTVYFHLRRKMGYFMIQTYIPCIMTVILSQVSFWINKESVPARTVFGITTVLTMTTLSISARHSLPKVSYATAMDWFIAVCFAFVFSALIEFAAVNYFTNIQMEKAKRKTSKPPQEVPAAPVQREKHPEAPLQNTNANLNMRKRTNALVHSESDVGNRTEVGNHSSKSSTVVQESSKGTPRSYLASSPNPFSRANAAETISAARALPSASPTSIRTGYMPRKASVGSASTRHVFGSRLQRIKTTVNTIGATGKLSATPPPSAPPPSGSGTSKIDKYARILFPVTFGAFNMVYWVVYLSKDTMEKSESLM
T2 sequence (P28472 26-473): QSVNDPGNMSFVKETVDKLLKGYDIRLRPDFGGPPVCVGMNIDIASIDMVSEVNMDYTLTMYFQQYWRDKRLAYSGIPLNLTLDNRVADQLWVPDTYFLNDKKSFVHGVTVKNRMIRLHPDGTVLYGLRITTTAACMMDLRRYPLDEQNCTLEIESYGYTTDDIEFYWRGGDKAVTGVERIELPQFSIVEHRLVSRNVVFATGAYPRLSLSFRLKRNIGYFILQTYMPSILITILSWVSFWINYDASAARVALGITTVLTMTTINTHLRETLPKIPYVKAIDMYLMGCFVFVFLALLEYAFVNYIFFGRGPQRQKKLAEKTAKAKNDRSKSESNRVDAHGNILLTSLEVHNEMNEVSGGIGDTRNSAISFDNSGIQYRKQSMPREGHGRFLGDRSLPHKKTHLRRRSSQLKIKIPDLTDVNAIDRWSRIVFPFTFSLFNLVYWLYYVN
T2 sequence (O14764 25-452 partner): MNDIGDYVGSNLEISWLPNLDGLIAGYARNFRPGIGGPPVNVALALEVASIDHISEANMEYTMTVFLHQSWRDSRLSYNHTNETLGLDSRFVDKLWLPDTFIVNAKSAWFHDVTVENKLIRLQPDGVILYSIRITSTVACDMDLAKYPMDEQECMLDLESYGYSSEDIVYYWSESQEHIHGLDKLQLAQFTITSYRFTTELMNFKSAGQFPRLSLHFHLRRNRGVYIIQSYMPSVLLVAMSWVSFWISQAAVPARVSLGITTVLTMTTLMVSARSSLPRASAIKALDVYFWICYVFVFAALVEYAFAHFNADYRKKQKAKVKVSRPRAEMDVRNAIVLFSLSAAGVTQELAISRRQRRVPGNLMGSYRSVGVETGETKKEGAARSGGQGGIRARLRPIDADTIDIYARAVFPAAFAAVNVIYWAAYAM
T1 sequence (P14867 28-456): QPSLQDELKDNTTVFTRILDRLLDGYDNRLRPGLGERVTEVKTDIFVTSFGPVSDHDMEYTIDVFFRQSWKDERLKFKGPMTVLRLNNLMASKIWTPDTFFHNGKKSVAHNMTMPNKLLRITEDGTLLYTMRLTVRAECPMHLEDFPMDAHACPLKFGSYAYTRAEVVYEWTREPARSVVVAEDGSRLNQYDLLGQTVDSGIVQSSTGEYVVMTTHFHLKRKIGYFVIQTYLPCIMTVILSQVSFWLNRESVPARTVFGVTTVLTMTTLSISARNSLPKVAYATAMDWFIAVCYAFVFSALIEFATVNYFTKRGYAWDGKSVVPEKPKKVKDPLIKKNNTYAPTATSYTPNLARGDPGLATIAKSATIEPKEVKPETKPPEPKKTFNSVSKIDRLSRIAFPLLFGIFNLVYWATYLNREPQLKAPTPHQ
T1 sequence (P47870 25-512 limits assumed): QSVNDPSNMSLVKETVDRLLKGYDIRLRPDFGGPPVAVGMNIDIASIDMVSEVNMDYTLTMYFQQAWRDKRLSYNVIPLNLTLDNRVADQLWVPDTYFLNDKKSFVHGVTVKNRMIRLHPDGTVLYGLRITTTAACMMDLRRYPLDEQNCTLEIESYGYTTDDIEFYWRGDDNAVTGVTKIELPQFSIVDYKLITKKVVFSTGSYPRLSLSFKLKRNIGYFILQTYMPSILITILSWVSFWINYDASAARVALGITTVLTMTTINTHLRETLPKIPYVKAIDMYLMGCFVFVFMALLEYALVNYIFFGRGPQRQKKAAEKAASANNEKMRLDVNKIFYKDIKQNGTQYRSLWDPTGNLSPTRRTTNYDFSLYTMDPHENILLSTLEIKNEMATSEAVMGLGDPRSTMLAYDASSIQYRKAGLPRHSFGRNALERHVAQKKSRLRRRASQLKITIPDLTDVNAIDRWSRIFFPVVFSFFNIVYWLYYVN
T1 sequence (P18507 40-475 partner): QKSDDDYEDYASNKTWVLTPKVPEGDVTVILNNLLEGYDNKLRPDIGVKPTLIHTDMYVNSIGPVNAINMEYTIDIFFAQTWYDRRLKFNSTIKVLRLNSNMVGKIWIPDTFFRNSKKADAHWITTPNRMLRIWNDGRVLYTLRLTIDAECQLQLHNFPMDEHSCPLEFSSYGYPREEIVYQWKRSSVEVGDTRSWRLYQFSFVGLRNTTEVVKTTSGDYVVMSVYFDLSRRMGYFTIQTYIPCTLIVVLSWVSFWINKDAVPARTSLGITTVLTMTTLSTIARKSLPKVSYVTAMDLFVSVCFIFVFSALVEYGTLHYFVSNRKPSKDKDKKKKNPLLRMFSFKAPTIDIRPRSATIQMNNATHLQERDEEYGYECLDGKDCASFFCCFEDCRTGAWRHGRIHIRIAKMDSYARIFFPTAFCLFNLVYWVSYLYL

For the compound `C[C@@]1(O)CC[C@H]2[C@H](CC[C@@H]3[C@@H]2CC[C@]2(C)[C@@H](C(=O)Cn4cnn(-c5cccc(C#N)c5)c4=O)CC[C@@H]32)C1` [Compound 34], in data set [1], the intrinsic metabolic clearance (CLint scaled) at 1 µM was found to be 7 mL/min/kg, the half-life at 1 µM turned out to be 178 min, the “Remaining amount % at 60 min” value was determined as 79.9% and the microsomal CLint at 1 µM is 8 µL/min/mg. The compound also returned an EC50 in data set [2] of 112 nM. Besides, in data set [3], the EC50 is 50 nM and the Emax was 683%. Also, in data set [4] (Rat liver microsomes), the CLint scaled at 1 µM amounted to 98 mL/min/kg, the half-life at 1 µM was 25.6 min and the microsomal CLint at 1 µM came out at 54 µL/min/mg. In data set [4], the “Remaining amount % at 60 min” value was found to be 20.5%.

For the compound `Cc1cc(-n2ncn(CC(=O)[C@H]3CC[C@H]4[C@@H]5CC[C@@H]6C[C@](C)(O)CC[C@@H]6[C@H]5CC[C@]34C)c2=O)ccn1` [Compound 36], in data set [1], the intrinsic metabolic clearance (CLint scaled) at 1 µM came out at 53 mL/min/kg, the half-life at 1 µM was determined as 23 min, the “Remaining amount % at 60 min” value came out at 15.9% and the microsomal CLint at 1 µM came out at 59 µL/min/mg. In data set [2], the EC50 worked out at 119 nM and the maximum response (Emax) was found to be 871%. Besides, in data set [3], the midpoint of the response, the EC50, lay at 99 nM and the Emax amounted to 745%. In data set [4] (Rat liver microsomes), the intrinsic metabolic clearance (CLint scaled) at 1 µM stood at 125 mL/min/kg, the half-life at 1 µM came out at 29 min and the microsomal CLint at 1 µM was 69 µL/min/mg. In addition, the “Remaining amount % at 60 min” value in data set [4] is on record as 12.2%.

On to `C[C@@]1(O)CC[C@H]2[C@H](CC[C@@H]3[C@@H]2CC[C@]2(C)[C@@H](C(=O)Cn4cnn(-c5ccnc(OC(F)(F)F)c5)c4=O)CC[C@@H]32)C1` [Compound 38], for which, in data set [1], the CLint scaled at 1 µM was below 6.75 mL/min/kg, the half-life at 1 µM was above 186 min, the “Remaining amount % at 60 min” value turned out to be 97.3% and the microsomal CLint at 1 µM was below 7.5 µL/min/mg. In data set [2], the half-maximal effective concentration (EC50) was determined as 55 nM and the Emax stood at 700%. In data set [3], this compound showed a 50% effective concentration (EC50) of 115 nM and an Emax of 625%. Besides, in data set [4] (Rat liver microsomes), the CLint scaled at 1 µM is 12 mL/min/kg, the half-life at 1 µM worked out at 210 min and the microsomal CLint at 1 µM came out at 7 µL/min/mg. The “Remaining amount % at 60 min” value in data set [4] came to 82.9%.

For the compound `C[C@@]1(O)CC[C@H]2[C@H](CC[C@@H]3[C@@H]2CC[C@]2(C)[C@@H](C(=O)Cn4cnn(-c5ccnc(OCC(F)(F)F)c5)c4=O)CC[C@@H]32)C1` [Compound 39], in data set [1], the intrinsic metabolic clearance (CLint scaled) at 1 µM was determined as 8 mL/min/kg, the T1/2 turned out to be 154 min, the “Remaining amount % at 60 min” value came out at 76.2% and the microsomal CLint at 1 µM came out at 9 µL/min/mg. In addition, the maximal response (Emax) in data set [2] was 675%. Further, the maximal response (Emax) in data set [3] is 967%. In data set [4] (Rat liver microsomes), the CLint scaled at 1 µM was below 13.5 mL/min/kg, the half-life at 1 µM was above 186 min and the microsomal CLint at 1 µM was below 7.5 µL/min/mg. Further, the “Remaining amount % at 60 min” value in data set [4] was 90.6%.

Turning to `C[C@@]1(O)CC[C@H]2[C@H](CC[C@@H]3[C@@H]2CC[C@]2(C)[C@@H](C(=O)Cn4cnn(CCOC(F)(F)F)c4=O)CC[C@@H]32)C1` [Compound 43], in data set [1], the CLint scaled at 1 µM stood at 41 mL/min/kg, the T1/2 was 30.7 min, the “Remaining amount % at 60 min” value was 25.97% and the microsomal CLint at 1 µM came to 45 µL/min/mg. In data set [2], the Emax is 576%. Also, in data set [3], the Emax is 889%. Also, in data set [4] (Rat liver microsomes), the intrinsic metabolic clearance (CLint scaled) at 1 µM was determined as 108 mL/min/kg, the T1/2 is given as 23 min and the microsomal CLint at 1 µM was 60 µL/min/mg. In data set [4], the “Remaining amount % at 60 min” value is reported as 15.74%.

In the case of `C[C@@]1(O)CC[C@H]2[C@H](CC[C@@H]3[C@@H]2CC[C@]2(C)[C@@H](C(=O)Cn4cnn(-c5cc(F)cc(C#N)c5)c4=O)CC[C@@H]32)C1` [Compound 44], in data set [1], the CLint scaled at 1 µM amounted to 12 mL/min/kg, the half-life at 1 µM was 102 min, the “Remaining amount % at 60 min” value turned out to be 66.67% and the microsomal CLint at 1 µM was found to be 14 µL/min/mg. The same compound showed an Emax in data set [2] of 518%. Also, the maximal effect (Emax) in data set [3] was found to be 546%. In addition, in data set [4] (Rat liver microsomes), the CLint scaled at 1 µM was 27 mL/min/kg, the half-life at 1 µM came to 93.6 min and the microsomal CLint at 1 µM came out at 15 µL/min/mg. The “Remaining amount % at 60 min” value in data set [4] amounted to 64.82%.

As to `CC(C)(C)n1ncn(CC(=O)[C@H]2CC[C@H]3[C@@H]4CC[C@@H]5C[C@](C)(O)CC[C@@H]5[C@H]4CC[C@]23C)c1=O` [Compound 45], in data set [1], the CLint scaled at 1 µM was 22 mL/min/kg, the half-life at 1 µM stood at 56.3 min, the “Remaining amount % at 60 min” value stood at 48.81% and the microsomal CLint at 1 µM turned out to be 25 µL/min/mg. For the same compound, in data set [2], the EC50 turned out to be 121 nM and the maximal effect (Emax) was found to be 806%. In data set [3], this compound yielded a half-maximal effective concentration (EC50) of 113 nM and an Emax of 749%. In data set [4] (Rat liver microsomes), the CLint scaled at 1 µM was determined as 281 mL/min/kg, the half-life at 1 µM worked out at 8.9 min and the microsomal CLint at 1 µM came out at 156 µL/min/mg. Besides, the “Remaining amount % at 60 min” value in data set [4] is on record as 7.24%.
